Data reported in US20110195979A1, “COMPOUNDS FOR THE TREATMENT AND PREVENTION OF INFLUENZA” (priority 2010, published 2011).
Read-outs that look alike come from different tables or passages of the source.

What was measured:
Influenza H1N1 virus = experiment: Viral cytopathic effect (CPE) assay; assay type: cell-based, Influenza A (H1N1)
Description: Cells and viruses. Madin-Darby canine kidney cell (MDCK) was purchased from American type culture collection (ATCC) and was maintained in minimal essential medium (MEM) containing 10% fetal bovine serum and antibiotics. Influenza A/Weiss/43 (H1N1), A/PR/8/34 (H1N1), and A/Hongkong/8/68 (H3N2) were purchased from ATCC and propagated in 10-day-old embryonated chicken eggs at 37° C. Virus was harvested 48 h after inoculation as pooled allantoic fluid. After a brief centrifugation (3,000 rpm at room temperature for 20 min) and virus titer measurement by a hemagglutination test, virus was aliquoted and stored at a −80° C. freezer.
Viral cytopathic effect (CPE) assay: To measure anti-influenza activity of compounds, MDCK cells were seeded into 96-well plates at a density of 5,000 cells per well. Next day, compounds were serially half-log diluted with Gibco SFM containing trypsin. Compounds and 50 pfu of virus were added into corresponding wells to make m.o.i at 0.01 and a final trypsin concentration of 2.5 μg/ml. The testing plates also contained medium control, cell control, virus control, and compound toxicity control. After a 3-day treatment, cell viability was measured with a MTT (3-(4,5-dimethylthiazol-2-yl)-2,5-diphenyltetrazolium bromide) method. Briefly, 20 μl of MTT diluted in culture medium was added into each wells and incubated at 37° C. for 4 hours. Reduced MTT (formazan) was extracted with acidic isopropanol and absorbance at wavelengths of 570 nm and 630 nm (OD570 and OD630) was read on a microtiter plate reader. After subtraction of background OD values, dose response curves of half-log concentration vs. percent protection were generated, on which half maximal effective concentration (EC50) and half maximal toxic concentration (CC50) were calculated.

MDCK cells [1] = experiment: Cytotoxicity to MDCK cells (compound toxicity control, MTT); conditions: for IC50: read-out: Cytotoxicy IC50, half maximal cytotoxicity concentration to MDCK cells, MTT; for IC50 at 3 day: dog
MDCK cells [2] = conditions: dog, 3 day
H3 viruses = conditions: cited from earlier work
H1 and H2 viruses = conditions: cited from earlier work
MDCK cells [3] = experiment: in vitro; conditions: dog, Cytotoxicy IC50
H3 influenza viruses = conditions: cited from earlier work
[4] = H1N1; MDCK cells, m.o.i 0.01, 3-day treatment, MTT OD; mean of triplicate experiments; read-out: CPE_EC50
[5] = Influenza A virus, H1N1, MDCK, 72 h, read-out: CPE_EC50

Row | Compound | EC50 (Influenza H1N1 virus; [5]) | IC50 at 3 day (MDCK cells [3]) | other results
1 | CC1(C)C[C@@H](O)C[C@@](C)(CNc2cc(Cl)cc(C#N)c2)C1 (relative stereo) [Example IIa-23, 3-Chloro-5-[((cis-1,5)-5-hydroxy-1,3,3-trimethyl-cyclohexylmethyl)-amino]-benzonitrile] |  |  | EC50 (Influenza H1N1 virus; [4]): 0.034 µM; IC50 (MDCK cells [1]): 13.9 µM
2 | CC1(C)CC(O)CC(CNc2cc(F)cc(C(F)(F)F)c2)C1 (single isomer, unassigned) [Example IIi-1/2 Isomer 1, (cis-1,5)-5-[(3-Fluoro-5-trifluoromethyl-phenylamino)-methyl]-3,3-dimethyl-cyclohexanol] | < 0.31 µM |  | IC50 (MDCK cells [2]): 8.16 µM
3 | CC1(C)CC(O)CC(CNc2cc(F)cc(C(F)(F)F)c2)C1 (single isomer, unassigned) [Example IIi-1/2 Isomer 2, (trans-1,5)-5-[(3-fluoro-5-trifluoromethyl-phenylamino)-methyl]-3,3-dimethyl-cyclohexanol] |  |  | EC50 (Influenza H1N1 virus; read-out: CPE_EC50; H1N1; MDCK cells, m.o.i 0.01, 3-day treatment, MTT OD; mean of triplicate experiments): < 0.31 µM; IC50 (MDCK cells [2]): 16.8 µM
4 | C[C@@H]1CCC[C@@H]2C[C@@H](NC(=O)c3cc(Cl)c(N)cc3O)CCN21 [BMY 27709] |  |  | activity against H3 viruses (H3 viruses): not H3 viruses; EC50 (H1 and H2 viruses; read-out: anti-flu activity EC50): 6 to 8 µM
5 | CC1(C)CC(O)CC(C)(CNc2ccc(C#N)c(Cl)c2)C1 (stereo not drawn) [Example IIa-29, 2-Chloro-4-[((cis-1,5)-5-hydroxy-1,3,3-trimethyl-cyclohexylmethyl)-amino]-benzonitrile] | 0.18 µM |  | IC50 at 3 day (MDCK cells [1]): 8.22 µM
6 | CC1(C)CC(O)CC(C)(CNc2ccc(Cl)c(C#N)c2)C1 (stereo not drawn) [Example IIa-30, 2-Chloro-5-[((cis-1,5)-5-hydroxy-1,3,3-trimethyl-cyclohexylmethyl)-amino]-benzonitrile] | 0.14 µM |  | IC50 at 3 day (MDCK cells [1]): 7.99 µM
7 | CC1(C)CC(O)CC(C)(CNc2ccc(C#N)c(C(F)(F)F)c2)C1 (stereo not drawn) [Example IIa-33, 4-[((cis-1,5)-5-Hydroxy-1,3,3-trimethyl-cyclohexylmethyl)-amino]-2-trifluoromethyl-benzonitrile] | 0.049 µM |  | IC50 at 3 day (MDCK cells [1]): 8.35 µM
8 | CC1(C)CC(O)CC(C)(C(=O)Nc2cc(F)cc(F)c2)C1 (stereo not drawn) [Example IVa-11, (cis-1,5)-5-Hydroxy-1,3,3-trimethyl-cyclohexanecarboxylic acid(3,5-difluoro-phenyl)-amide] | 0.32 µM | > 100 µM | 
9 | CC1(C)CC(O)CC(C)(C(=O)Nc2cc(F)cc(Cl)c2)C1 (stereo not drawn) [Example IVa-12, (cis-1,5)-5-Hydroxy-1,3,3-trimethyl-cyclohexanecarboxylic acid(3-chloro-5-fluoro-phenyl)amide] | 0.055 µM | 56.4 µM | 
10 | CC1(C)CC(O)CC(C)(C(=O)Nc2cc(F)cc(C(F)(F)F)c2)C1 (stereo not drawn) [Example IVa-13, (cis-1,5)-5-Hydroxy-1,3,3-trimethyl-cyclohexanecarboxylic acid(3-fluoro-5-trifluoromethyl-phenyl)-amide] | 0.054 µM | 52.8 µM | 
11 | CC1(C)CC(O)CC(C)(C(=O)Nc2cc(Cl)cc(C(F)(F)F)c2)C1 (stereo not drawn) [Example IVa-14, (cis-1,5)-5-Hydroxy-1,3,3-trimethyl-cyclohexanecarboxylic acid(3-chloro-5-trifluoromethyl-phenyl)-amide] | 0.019 µM | 22.2 µM | 
12 | CC1(C)CC(O)CC(C)(C(=O)Nc2cc(Br)cc(C(F)(F)F)c2)C1 (stereo not drawn) [Example IVa-15, (cis-1,5)-5-Hydroxy-1,3,3-trimethyl-cyclohexanecarboxylic acid(3-bromo-5-trifluoromethyl-phenyl)-amide] | 0.055 µM | 7.31 µM | 
13 | COc1cc(NC(=O)C2(C)CC(O)CC(C)(C)C2)cc(C(F)(F)F)c1 (stereo not drawn) [Example IVa-16, (cis-1,5)-5-Hydroxy-1,3,3-trimethyl-cyclohexanecarboxylic acid(3-methoxy-5-trifluoromethyl-phenyl)-amide] | 0.06 µM | 74.8 µM | 
14 | CC1(C)CC(O)CC(C)(C(=O)Nc2cc(Cl)cc(Cl)c2)C1 (stereo not drawn) [Example IVa-17, (cis-1,5)-5-Hydroxy-1,3,3-trimethyl-cyclohexanecarboxylic acid(3,5-dichloro-phenyl)-amide] | 0.049 µM | 23.2 µM | 
15 | CC1(C)CC(O)CC(C)(C(=O)Nc2ccc(Cl)c(F)c2)C1 (stereo not drawn) [Example IVa-19, (cis-1,5)-5-Hydroxy-1,3,3-trimethyl-cyclohexanecarboxylic acid(4-chloro-3-fluoro-phenyl)amide] | 1.8 µM | 30.9 µM | 
16 | CC1(C)CC(O)CC(C)(C(=O)Nc2ccc(Cl)c(Cl)c2)C1 (stereo not drawn) [Example IVa-20, (cis-1,5)-5-Hydroxy-1,3,3-trimethyl-cyclohexanecarboxylic acid(3,4-dichloro-phenyl)-amide] | 0.627 µM | 9.63 µM | 
17 | CC1(C)CC(O)CC(C)(C(=O)Nc2ccc(F)c(C(F)(F)F)c2)C1 (stereo not drawn) [Example IVa-21, (cis-1,5)-5-Hydroxy-1,3,3-trimethyl-cyclohexanecarboxylic acid(4-fluoro-3-trifluoromethyl-phenyl)-amide] | 0.454 µM | 29.6 µM | 
18 | CC(=O)NC1CC(C)(C)CC(C)(C(=O)Nc2cccc(Cl)c2)C1 (stereo not drawn) [Example IVb-2, (cis-1,5)-5-Acetylamino-1,3,3-trimethyl-cyclohexanecarboxylic acid(3-chloro-phenyl)-amide] | 4.61 µM | > 100 µM | 
19 | CC(=O)N(C(C)=O)C1CC(C)(C)CC(C)(C(=O)Nc2cccc(Cl)c2)C1 (stereo not drawn) [Example IVb-3, (cis-1,5)-Diacetylamino-1,3,3-trimethyl-cyclohexanecarboxylic acid(3-chloro-phenyl)-amide] | 3.15 µM | 22.9 µM | 
20 | CC1(C)CC(NS(C)(=O)=O)CC(C)(C(=O)Nc2cccc(Cl)c2)C1 (stereo not drawn) [Example IVb-4, (cis-1,5)-5-Methanesulfonylamino-1,3,3-trimethyl-cyclohexanecarboxylic acid(3-chloro-phenyl)-amide] | 2.77 µM | > 100 µM | 
21 | CC(C)(C)c1cc(O)ccc1O [TBHQ, tert-butyl hydroquinone] |  |  | inhibition of fusion (H3 influenza viruses): inhibits fusion
22 | C[C@H]1CC[C@H]2C(C)(C)[C@@H](O)CC[C@]23Oc2c(c(O)cc4c2CNC4=O)C[C@]13C [stachyflin] |  |  | activity against H3 viruses (H3 viruses): not H3 viruses; block of influenza virus replication (H1 and H2 viruses): blocked
23 | (cis-1,5)-5-Hydroxy-1,3,3-trimethyl-cyclohexanecarboxylic acid(4-chloro-3-trifluoromethyl-phenyl)-amide [Example IVa-22] |  |  | EC50 (Influenza H1N1 virus; [4]): 0.165 µM; IC50 (MDCK cells [1]): 7.49 µM
